Structures can show the parent of a compound that is named as a salt.
Experiments:
Assay type in all cases: in vivo
[1] = tested on: wild pansy (Viola tricolor L; VIOTR); test: Postemergence herbicidal activity, greenhouse, visual injury: wild pansy; parameters: key: visual injury, 0–100%: 0 = no injury, 100 = complete kill
Experimental: (§1) Evaluation of Postemergence Herbicidal Safening in Cereal Crops
(§2) Seeds of the desired test plant species were planted in Sun Gro MetroMix® 306 planting mixture, which typically has a pH of 6.0 to 6.8 and an organic matter content of about 30 percent, in plastic pots with a surface area of 103.2 square centimeters (cm^2). When required to ensure good germination and healthy plants, a fungicide treatment and/or other chemical or physical treatment was applied. The plants were grown for 7-36 days (d) in a greenhouse with an approximate 14-hour (h) photoperiod which was maintained at about 18° C. during the day and 17° C. during the night. Nutrients and water were added on a regular basis and supplemental lighting was provided with overhead metal halide 1000-Watt lamps as necessary. The plants were employed for testing when they reached the second or third true leaf stage.
(§3) Weighed amounts of esters (methyl) or salts (TEA [triethylammonium], K [potassium]) of 4-amino-3-chloro-6-(4-chloro-2-fluoro-3-methoxyphenyl)pyridine-2-carboxylic acid (Compound 1) were dissolved in a volume of 97:3 volume/volume (v/v) acetone/dimethylsulfoxide (DMSO) to obtain stock solutions. […] The concentrated stock solutions were diluted with an aqueous mixture of 1.5% v/v of Agri-dex crop oil concentrate to provide the appropriate application rates. Compound requirements are based upon a 12 mL application volume at a rate of 187 liters per hectare (L/ha). Stocks solutions of the safeners were prepared following the same procedure. Spray solutions of the safeners and experimental compound mixtures were prepared by adding the stock solutions to the appropriate amount of dilution solution to form a 12 mL spray solution with active ingredients in two-way combinations. Formulated compounds were applied to the plant material with an overhead Mandel track sprayer equipped with 8002E nozzles calibrated to deliver 187 L/ha over an application area of 0.503 square meters (m^2) at a spray height of 18 inches (43 centimeters (cm)) above average plant canopy. Control plants were sprayed in the same manner with the solvent blank.
(§4) The treated plants and control plants were placed in a greenhouse as described above and watered by sub-irrigation to prevent wash-off of the test compounds. After 20-22 d, the condition of the test plants as compared with that of the control plants was determined visually and scored on a scale of 0 to 100 percent where 0 corresponds to no injury and 100 corresponds to complete kill.
(§5) Colby's equation was used to determine the herbicidal effects expected from the mixtures (Colby, S. R. Calculation of the synergistic and antagonistic response of herbicide combinations. Weeds 1967, 15, 20-22.).
(§6) The following equation was used to calculate the expected activity of mixtures containing two active ingredients, A and B: Expected=A+B−(A×B/100)
(§7) A=observed efficacy of active ingredient A at the same concentration as used in the mixture.
(§8) B=observed efficacy of active ingredient B at the same concentration as used in the mixture.

[2] = tested on: scented mayweed (Matricaria chamomila L; MATCH); test: Postemergence herbicidal activity, greenhouse, visual injury: scented mayweed; parameters: key: % visual injury: 0 = no injury, 100 = complete kill
Experimental: as §1, §2, §3, §4, §5, §6, §7, §8

[3] = tested on: barley (Hordeum vulgare L; HORVS); test: Postemergence herbicidal safening, greenhouse, visual injury: barley
Experimental: as §1, §2, §3, §4, §5, §6, §7, §8

[4] = tested on: wheat (Triticum aestivum L; TRZAS); test: Postemergence herbicidal safening, greenhouse, visual injury: wheat
Experimental: as §1, §2, §3, §4, §5, §6, §7, §8

[5] = tested on: purple deadnettle (Lamium purpureum L; LAMPU); test: Postemergence herbicidal activity, greenhouse, visual injury: purple deadnettle; parameters: key: visual injury, 0–100%: 0 = no injury, 100 = complete kill
Experimental: as §1, §2, §3, §4, §5, §6, §7, §8

[6] = tested on: corn poppy (Papaver rhoeas L; PAPRH); test: Postemergence herbicidal activity, greenhouse, visual injury: corn poppy
Experimental: as §1, §2, §3, §4, §5, §6, §7, §8

[7] = tested on: chickweed (Stellaria media L; STEME); test: Postemergence herbicidal activity, greenhouse, visual injury: chickweed; parameters: key: visual injury, 0–100%: 0 = no injury, 100 = complete kill
Experimental: as §1, §2, §3, §4, §5, §6, §7, §8

[8] = tested on: cleavers (Galium aparine L; GALAP); test: Postemergence herbicidal activity, greenhouse, visual injury: cleavers; parameters: key: visual injury, 0–100%: 0 = no injury, 100 = complete kill
Experimental: as §1, §2, §3, §4, §5, §6, §7, §8

[9] = tested on: wild buckwheat (Polygonum convolvulus L; POLCO); test: Postemergence herbicidal activity, greenhouse, visual injury: wild buckwheat
Experimental: as §1, §2, §3, §4, §5, §6, §7, §8

[10] = tested on: kochia (Kochia scoparia L; KCHSC); test: Postemergence herbicidal activity, greenhouse, visual injury: kochia; parameters: key: % visual injury: 0 = no injury, 100 = complete kill
Experimental: as §1, §2, §3, §4, §5, §6, §7, §8

[11] = tested on: bird's-eye speedwell (Veronica persica L; VERPE); test: Postemergence herbicidal activity, greenhouse, visual injury: bird's-eye speedwell; parameters: key: visual injury, 0–100%: 0 = no injury, 100 = complete kill
Experimental: as §1, §2, §3, §4, §5, §6, §7, §8

[12] = tested on: Russian thistle (Salsola iberica L; SASKR); test: Postemergence herbicidal activity, greenhouse, visual injury: Russian thistle; parameters: key: visual injury, 0–100%: 0 = no injury, 100 = complete kill
Experimental: as §1, §2, §3, §4, §5, §6, §7, §8

[13] = Compound 1 K salt 8.75 g/ha alone
[14] = Compound 1 K salt 17.5 g/ha alone
[15] = Compound 1 K salt 35 g/ha alone

For `COc1c(Cl)ccc(-c2cc(N)c(Cl)c(C(=O)[O-])n2)c1F.[K+]` [1 K salt], the “VIOTR Ob (Observed values)” value [1, 13] was 20, the “VIOTR Ob (Observed values)” value [1, 14] was 48 and the “VIOTR Ob (Observed values)” value [1, 15] was 42. The “MATCH Ob (Observed values)” value [2, 13] was 50, the “MATCH Ob (Observed values)” value [2, 14] was 62 and the “MATCH Ob (Observed values)” value [2, 15] was 57. For the same compound, the “HORVS Ob (Observed values)” value [3, 13] was 1.7, the “HORVS Ob (Observed values)” value [3, 14] was 3.3 and the “HORVS Ob (Observed values)” value [3, 15] was 6.7. For the same compound, the “TRZAS Ob (Observed values)” value [4, 13] was 5, the “TRZAS Ob (Observed values)” value [4, 14] was 8 and the “TRZAS Ob (Observed values)” value [4, 15] was 27.
With `COc1c(Cl)ccc(-c2cc(N)c(Cl)c(C(=O)O)n2)c1F` [Compound 1 TEA salt, 4-amino-3-chloro-6-(4-chloro-2-fluoro-3-methoxyphenyl)pyridine-2-carboxylic acid] the “LAMPU Ob” value ([5]; applied alone at 140 g/ha) was 99%, the “LAMPU Ob” value ([5]; applied alone, 140 g/ha) was 99 and the “VIOTR Ob” value ([1]; applied alone at 140 g/ha) was 69%. The “VIOTR Ob” value ([1]; applied alone, 140 g/ha) was 69, the “PAPRH Ob” value ([6]; applied alone at 140 g/ha) was 100% and the “PAPRH Ob” value ([6]; applied alone, 140 g/ha) was 100. The “STEME Ob” value ([7]; applied alone at 140 g/ha) was 94%, the “STEME Ob” value ([7]; applied alone, 140 g/ha) was 94 and the “MATCH Ob” value ([2]; applied alone at 140 g/ha) was 80%. For the same compound, the “MATCH Ob” value ([2]; applied alone, 140 g/ha) was 80, the “GALAP Ob” value ([8]; applied alone at 140 g/ha) was 100% and the “GALAP Ob” value ([8]; applied alone, 140 g/ha) was 100. For the same compound, the “POLCO Ob” value ([9]; applied alone at 140 g/ha) was 100%, the “POLCO Ob” value ([9]; applied alone, 140 g/ha) was 100 and the “KCHSC Ob” value ([10]; applied alone at 140 g/ha) was 94%. The “KCHSC Ob” value ([10]; applied alone, 140 g/ha) was 94, the “HORVS Ob” value ([3]; applied alone at 140 g/ha) was 16% and the HORVS Ob ([3]; applied alone, 140 g/ha) was 16%. For the same compound, the “VERPE Ob” value ([11]; applied alone at 140 g/ha) was 85%, the “VERPE Ob” value ([11]; applied alone, 140 g/ha) was 85 and the “TRZAS Ob” value ([4]; applied alone at 140 g/ha) was 26%. The TRZAS Ob ([4]; applied alone, 140 g/ha) was 26%, the “SASKR Ob” value ([12]; applied alone at 140 g/ha) was 88% and the “SASKR Ob” value ([12]; applied alone, 140 g/ha) was 88.
For `CC1(C)OC(c2ccco2)CN1C(=O)C(Cl)Cl` (stereo not drawn) [Furilazole (MON 13900)], the “LAMPU Ob” value ([5]; applied alone, 17.5 g/ha) was 0, the “LAMPU Ob” value ([5]; applied alone, 35 g/ha) was 0 and the “LAMPU Ob” value ([5]; applied alone, 70 g/ha) was 0. For the same compound, the “LAMPU Ob” value ([5]; applied alone, 140 g/ha) was 0, the “VIOTR Ob” value ([1]; applied alone, 17.5 g/ha) was 0 and the “VIOTR Ob” value ([1]; applied alone, 35 g/ha) was 0. For the same compound, the “VIOTR Ob” value ([1]; applied alone, 70 g/ha) was 0, the “VIOTR Ob” value ([1]; applied alone, 140 g/ha) was 0 and the “PAPRH Ob” value ([6]; applied alone, 17.5 g/ha) was 0. For the same compound, the “PAPRH Ob” value ([6]; applied alone, 35 g/ha) was 0, the “PAPRH Ob” value ([6]; applied alone, 70 g/ha) was 0 and the “PAPRH Ob” value ([6]; applied alone, 140 g/ha) was 0. For the same compound, the “STEME Ob” value ([7]; applied alone, 17.5 g/ha) was 0, the “STEME Ob” value ([7]; applied alone, 35 g/ha) was 0 and the “STEME Ob” value ([7]; applied alone, 70 g/ha) was 0. The “STEME Ob” value ([7]; applied alone, 140 g/ha) was 0, the “MATCH Ob” value ([2]; applied alone, 17.5 g/ha) was 0 and the “MATCH Ob” value ([2]; applied alone, 35 g/ha) was 0. The “MATCH Ob” value ([2]; applied alone, 70 g/ha) was 0, the “MATCH Ob” value ([2]; applied alone, 140 g/ha) was 0 and the “GALAP Ob” value ([8]; applied alone, 17.5 g/ha) was 0. The “GALAP Ob” value ([8]; applied alone, 35 g/ha) was 0, the “GALAP Ob” value ([8]; applied alone, 70 g/ha) was 0 and the “GALAP Ob” value ([8]; applied alone, 140 g/ha) was 0. For the same compound, the “POLCO Ob” value ([9]; applied alone, 17.5 g/ha) was 0, the “POLCO Ob” value ([9]; applied alone, 35 g/ha) was 0 and the “POLCO Ob” value ([9]; applied alone, 70 g/ha) was 0. The “POLCO Ob” value ([9]; applied alone, 140 g/ha) was 0, the “KCHSC Ob” value ([10]; applied alone, 17.5 g/ha) was 0 and the “KCHSC Ob” value ([10]; applied alone, 35 g/ha) was 0. For the same compound, the “KCHSC Ob” value ([10]; applied alone, 70 g/ha) was 0, the “KCHSC Ob” value ([10]; applied alone, 140 g/ha) was 0 and the HORVS Ob ([3]; applied alone, 17.5 g/ha) was 0%. For the same compound, the HORVS Ob ([3]; applied alone, 35 g/ha) was 0%, the HORVS Ob ([3]; applied alone, 70 g/ha) was 0% and the HORVS Ob ([3]; applied alone, 140 g/ha) was 0%. For the same compound, the “VERPE Ob” value ([11]; applied alone, 17.5 g/ha) was 0, the “VERPE Ob” value ([11]; applied alone, 35 g/ha) was 0 and the “VERPE Ob” value ([11]; applied alone, 70 g/ha) was 0. For the same compound, the “VERPE Ob” value ([11]; applied alone, 140 g/ha) was 0, the TRZAS Ob ([4]; applied alone, 17.5 g/ha) was 0% and the TRZAS Ob ([4]; applied alone, 35 g/ha) was 0%. The TRZAS Ob ([4]; applied alone, 70 g/ha) was 0%, the TRZAS Ob ([4]; applied alone, 140 g/ha) was 0% and the “SASKR Ob” value ([12]; applied alone, 17.5 g/ha) was 0. The “SASKR Ob” value ([12]; applied alone, 35 g/ha) was 0, the “SASKR Ob” value ([12]; applied alone, 70 g/ha) was 0 and the “SASKR Ob” value ([12]; applied alone, 140 g/ha) was 0.

— patent US8921267B2, “Safening 6-(trisubstituted phenyl)-4-amino-2-pyridinecarboxylate herbicide injury on cereal crops” (Dow AgroSciences LLC, priority 2008, dated 2014)
